Laboratory results from patent US9815842B2, “Pyrazolo pyrimidine derivatives and their use as MALT1 inhibitors” (Novartis AG, priority 2014, dated 2017).

Tests used:
[1] = target: cIAP2-MALT1 fusion protein (Homo sapiens, UniProt Q9UDY8); assay: cell-based
Procedure: For the measurement of compound inhibition, 0.25 μl of test compound were mixed with 12.5 μl of enzyme in wells of the 384-well plates, and incubated for 60 minutes at room temperature (22° C.). After that, 12.5 μl of substrate was added, and the enzymatic reaction was allowed to proceed for 60 minutes at room temperature (22° C.). […] The DMSO content was between 0.9 and 1% (v/v). […] The IC50 value was calculated from the plot of percentage inhibition versus inhibitor concentration using non-linear regression analysis software (Origin, OriginLab Corporation, USA). The data were fitted using a 4 Parameter Logistic Model, characterized by the following equation: y=A2+(A1−A2)/(1+(x/IC50)^p) where y is the %-inhibition at the inhibitor concentration, x. A1 is the lowest inhibition value, and A2 the maximum inhibition value.

[2] = target: C-domain of MALT1 (amino acids 329-824) (Homo sapiens (Human), UniProt Q9UDY8); assay: MALT1 biochemical assay (fluorescence lifetime enzyme activity assay); settings: 60 min pre-incubation, 2.5 nM enzyme, 1 μM peptide substrate
C-domain of MALT1 (amino acids 329-824), sequence (Q9UDY8 329-824): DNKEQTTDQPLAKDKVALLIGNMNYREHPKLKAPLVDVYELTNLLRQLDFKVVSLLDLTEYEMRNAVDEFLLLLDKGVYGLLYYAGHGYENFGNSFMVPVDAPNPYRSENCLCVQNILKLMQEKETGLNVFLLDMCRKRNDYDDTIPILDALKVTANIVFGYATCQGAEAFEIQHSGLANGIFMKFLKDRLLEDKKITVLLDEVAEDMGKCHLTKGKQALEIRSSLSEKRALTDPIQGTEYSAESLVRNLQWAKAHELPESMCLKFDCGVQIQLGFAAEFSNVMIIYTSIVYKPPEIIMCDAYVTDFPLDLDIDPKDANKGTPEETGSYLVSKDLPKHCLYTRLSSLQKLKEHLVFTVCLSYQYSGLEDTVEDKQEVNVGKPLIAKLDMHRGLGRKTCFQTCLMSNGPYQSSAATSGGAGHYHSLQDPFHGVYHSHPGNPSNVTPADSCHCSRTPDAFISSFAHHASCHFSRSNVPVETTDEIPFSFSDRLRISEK
Procedure: The readout parameter is the increase of fluorescence lifetime over time, proportional to enzyme activity.
The assay employs a short peptide substrate labeled with the single fluorophore PT14 as a fluorescence lifetime probe sensitive to the cleavage state of the substrate (PT14: 6-(9-oxo-9H-acridin-10-yl)-hexanoate, AssayMetrics, UK). […] The assay buffer consists of 200 mM Tris/HCl at pH 7.5, 0.8 M Na citrate, 100 μM EGTA, 100 μM DTT and 0.05% (w/v) CHAPS. […] Test compounds were dissolved in 100% (v/v) DMSO or a mixture containing 90% (v/v) DMSO and 10% (v/v) H2O at a stock concentration of 100 mM. Serial dilutions of test compounds were prepared using either 100% (v/v) DMSO or a mixture containing 90% (v/v) DMSO and 10% (v/v) H2O.

Human IL2 promoter = Human IL2 promoter reporter gene assay (RGA) in Jurkat cells; assay type: cell-based; settings: Jurkat clone K22 290_H23, anti-CD28 mAb + PMA stimulation 5.5 h
Procedure: Human IL2 Promoter Reporter Gene Assay (RGA) in Jurkat Cells
The transfected Jurkat clone K22 290_H23 was propagated in RPMI 1640 supplemented with 10% heat inactivated fetal calf serum, 50 μM 2-mercaptoethanol and 1 mg/ml Geneticin. The cell concentration should not exceed 1×10e6/ml during culturing. The cells should not exceed passage 30. Prior to the assay the cells were washed and prepared to the concentration of 2×10e6 cells/ml.
Compound dilutions were made as 2×-concentrated solutions then diluted 1/2 by addition to cells. Two hundred and fifty μl of compound dilution and 250 μl of cells were mixed together in wells of a 96-deep well plate. Cells/compounds premix were incubated 30 min at 37° C. and 5% CO2 directly in the deep well plate.
After pre-incubation of cells with compounds, cells were stimulated with anti-CD28 mAb (clone 15E8) at 3 μg/ml+PMA at 1 μg/ml. Both co-stimulants were diluted in culture medium at a 10×-concentrated solution. 10 μl of co-stimulants were pipetted into the white 96-well plates and 100 μl of cell/compound mix was immediately added in duplicates. The cells were stimulated for 5.5 h at 37° C. and 5% CO2.
After cell stimulation, 50 μl of BriteLitePlus reagent (Perkin Elmer) was added to each well and the bioluminescence was measured with a Wallac EnVision reader (Perkin Elmer).

cIAP2-MALT1 fusion protein, sequence (Q9UDY8 2-824 limits assumed): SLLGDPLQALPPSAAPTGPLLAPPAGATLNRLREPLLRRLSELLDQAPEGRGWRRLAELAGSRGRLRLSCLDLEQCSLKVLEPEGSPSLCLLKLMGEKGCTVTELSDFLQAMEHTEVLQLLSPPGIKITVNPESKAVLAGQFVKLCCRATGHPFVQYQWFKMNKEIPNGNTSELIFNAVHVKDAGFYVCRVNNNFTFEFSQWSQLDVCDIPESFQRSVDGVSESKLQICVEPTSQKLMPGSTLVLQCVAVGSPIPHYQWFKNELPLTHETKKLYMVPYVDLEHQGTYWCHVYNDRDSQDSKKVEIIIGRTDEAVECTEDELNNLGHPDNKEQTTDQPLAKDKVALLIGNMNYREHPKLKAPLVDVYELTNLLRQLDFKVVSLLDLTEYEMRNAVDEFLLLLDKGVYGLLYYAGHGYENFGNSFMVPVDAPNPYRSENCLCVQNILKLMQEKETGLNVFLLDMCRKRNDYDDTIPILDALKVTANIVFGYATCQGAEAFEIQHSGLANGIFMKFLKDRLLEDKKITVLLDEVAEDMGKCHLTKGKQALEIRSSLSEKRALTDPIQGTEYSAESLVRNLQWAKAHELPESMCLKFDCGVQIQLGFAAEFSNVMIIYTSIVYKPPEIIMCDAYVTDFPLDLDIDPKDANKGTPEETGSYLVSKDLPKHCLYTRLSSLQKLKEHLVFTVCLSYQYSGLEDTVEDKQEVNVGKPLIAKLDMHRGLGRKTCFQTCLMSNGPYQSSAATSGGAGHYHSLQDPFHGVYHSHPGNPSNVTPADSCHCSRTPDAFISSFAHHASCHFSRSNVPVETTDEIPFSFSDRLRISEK

Row | SMILES | IC50 [1] [nM] | IC50 [2] [nM] | IC50 (Human IL2 promoter) [nM]
1 | CN[C@@H](C)c1c(NC(=O)Nc2cnc(-n3nccn3)c(Cl)c2)cnc2cc(Cl)nn12 [Example 119, (S)-1-(5-chloro-6-(2H-1,2,3-triazol-2-yl)pyridin-3-yl)-3-(2-chloro-7-(1-(methylamino)ethyl)pyrazolo[1,5-a]pyrimidin-6-yl)urea] | 157 |  | 
2 | C[C@@H](OCc1ccccc1)c1c(NC(=O)Nc2cnc(-n3nccn3)c(C(F)(F)F)c2)cnc2cc(Cl)nn12 [Example 65, (R)-1-(6-(2H-1,2,3-triazol-2-yl)-5-(trifluoromethyl)pyridin-3-yl)-3-(7-(1-(benzyloxy)ethyl)-2-chloropyrazolo[1,5-a]pyrimidin-6-yl)urea] | 405 | 9 | 
3 | Cn1ccnc1-c1c(NC(=O)Nc2cnc(-n3nccn3)c(Cl)c2)cnc2cc(Cl)nn12 [Example 86, 1-(5-chloro-6-(2H-1,2,3-triazol-2-yl)pyridin-3-yl)-3-(2-chloro-7-(1-methyl-1H-imidazol-2-yl)pyrazolo[1,5-a]pyrimidin-6-yl)urea] | 569 |  | 
4 | O=C(Nc1cnc(-n2nccn2)c(Cl)c1)Nc1cnc2cc(Cl)nn2c1CC1CCOCC1 [Example 60, 1-(5-chloro-6-(2H-1,2,3-triazol-2-yl)pyridin-3-yl)-3-(2-chloro-7-((tetrahydro-2H-pyran-4-yl)methyl)pyrazolo[1,5-a]pyrimidin-6-yl)urea] | 502 | 26 | 
5 | CO[C@@H](c1c(NC(=O)Nc2ccnc(C(F)(F)F)c2)cnc2cc(Cl)nn12)C(C)C [Example 37, (R)-1-(2-chloro-7-(1-methoxy-2-methylpropyl)pyrazolo[1,5-a]pyrimidin-6-yl)-3-(2-(trifluoromethyl)pyridin-4-yl)urea] | 221 | 11 | 
6 | CO[C@@H](C)c1c(NC(=O)Nc2ccnc(Cl)c2)cnc2cc(Cl)nn12 [Example 12, (S)-1-(2-chloro-7-(1-methoxyethyl)pyrazolo[1,5-a]pyrimidin-6-yl)-3-(2-chloropyridin-4-yl)urea] | 71 | 14 | 
7 | COC(C)(C)c1c(NC(=O)Nc2ccnc(C(F)(F)F)c2)cnc2cc(Cl)nn12 [Example 15, 1-(2-chloro-7-(2-methoxypropan-2-yl)pyrazolo[1,5-a]pyrimidin-6-yl)-3-(2-(trifluoromethyl)pyridin-4-yl)urea] | 110 | 5 | 
8 | COCCO[C@@H](C)c1c(NC(=O)Nc2cnc(-n3nccn3)c(Cl)c2)cnc2cc(Cl)nn12 [Example 39, (S)-1-(5-chloro-6-(2H-1,2,3-triazol-2-yl)pyridin-3-yl)-3-(2-chloro-7-(1-(2-methoxyethoxy)ethyl)pyrazolo[1,5-a]pyrimidin-6-yl)urea] | 60 | 3 | 
9 | CC(C)c1c(NC(=O)Nc2cc(Cl)cc3c2NC(=O)C3)cnc2cc(Cl)nn12 [Example 31, 1-(5-chloro-2-oxoindolin-7-yl)-3-(2-chloro-7-isopropylpyrazolo[1,5-a]pyrimidin-6-yl)urea] | 349 | 14 | 
10 | COCCO[C@H](C)c1c(NC(=O)Nc2cnc(-n3nccn3)c(Cl)c2)cnc2cc(Cl)nn12 [Example 42, (R)-1-(5-chloro-6-(2H-1,2,3-triazol-2-yl)pyridin-3-yl)-3-(2-chloro-7-(1-(2-methoxyethoxy)ethyl)pyrazolo[1,5-a]pyrimidin-6-yl)urea] | 378 | 21 | 
11 | COc1ncc(NC(=O)Nc2cnc3cc(Cl)nn3c2C2C3COCC32)cc1Cl (centres unmarked) [Example 67, 1-(7-(3-oxabicyclo[3.1.0]hexan-6-yl)-2-chloropyrazolo[1,5-a]pyrimidin-6-yl)-3-(5-chloro-6-methoxypyridin-3-yl)urea] | 553 | 35 | 
12 | CC1(c2c(NC(=O)Nc3cnc(-n4nccn4)c(Cl)c3)cnc3cc(Cl)nn23)CCOCC1 [Example 55, 1-(5-chloro-6-(2H-1,2,3-triazol-2-yl)pyridin-3-yl)-3-(2-chloro-7-(4-methyltetrahydro-2H-pyran-4-yl)pyrazolo[1,5-a]pyrimidin-6-yl)urea] | 287 | 5 | 
13 | CC(C)(C)OC(=O)N1CCOC(c2c(NC(=O)Nc3cnc(-n4nccn4)c(Cl)c3)cnc3cc(Cl)nn23)C1 (centres unmarked) [Example 66, tert-butyl 2-(2-chloro-6-(3-(5-chloro-6-(2H-1,2,3-triazol-2-yl)pyridin-3-yl)ureido)pyrazolo[1,5-a]pyrimidin-7-yl)morpholine-4-carboxylate] | 241 |  | 
14 | Cc1cc(CO)nn1-c1ccc(NC(=O)Nc2cnc3cc(Cl)nn3c2C(C)C)cc1Cl [Example 28, 1-(3-chloro-4-(3-(hydroxymethyl)-5-methyl-1H-pyrazol-1-yl)phenyl)-3-(2-chloro-7-isopropylpyrazolo[1,5-a]pyrimidin-6-yl)urea] | 215 |  | 
15 | CO[C@@H](C)c1c(NC(=O)Nc2cnc(-n3nccn3)c(Cl)c2)cnc2cc(F)nn12 [Example 95, (S)-1-(5-chloro-6-(2H-1,2,3-triazol-2-yl)pyridin-3-yl)-3-(2-fluoro-7-(1-methoxyethyl)pyrazolo[1,5-a]pyrimidin-6-yl)urea] |  | 2 | 13
16 | CN[C@H](c1c(NC(=O)Nc2cnc(-n3nccn3)c(Cl)c2)cnc2cc(Cl)nn12)C(C)C [Example 124, (S)-1-(5-chloro-6-(2H-1,2,3-triazol-2-yl)pyridin-3-yl)-3-(2-chloro-7-(2-methyl-1-(methylamino)propyl)pyrazolo[1,5-a]pyrimidin-6-yl)urea] |  | 8 | 41
17 | CO[C@@H](C)c1c(NC(=O)Nc2cnc(-n3nccn3)c(C(F)(F)F)c2)cnc2cc(F)nn12 [Example 94, (S)-1-(6-(2H-1,2,3-triazol-2-yl)-5-(trifluoromethyl)pyridin-3-yl)-3-(2-fluoro-7-(1-methoxyethyl)pyrazolo[1,5-a]pyrimidin-6-yl)urea] |  | 2 | 16
18 | CO[C@@H](C)c1c(NC(=O)Nc2cnc(-n3nccn3)c(C(F)F)c2)cnc2cc(Cl)nn12 [Example 89, (S)-1-(2-chloro-7-(1-methoxyethyl)pyrazolo[1,5-a]pyrimidin-6-yl)-3-(5-(difluoromethyl)-6-(2H-1,2,3-triazol-2-yl)pyridin-3-yl)urea] |  | 3 | 46
19 | C[C@H](OC[C@H]1CCOC1)c1c(NC(=O)Nc2cnc(-n3nccn3)c(Cl)c2)cnc2cc(Cl)nn12 [Example 102, 1-(5-chloro-6-(2H-1,2,3-triazol-2-yl)pyridin-3-yl)-3-(2-chloro-7-((S)-1-(((S)-tetrahydrofuran-3-yl)methoxy)ethyl)pyrazolo[1,5-a]pyrimidin-6-yl)urea] |  | 3 | 14
20 | CO[C@@H](C)c1c(NC(=O)Nc2cnc(-n3nccn3)c(Cl)c2)cnc2cc(C#N)nn12 [Example 96, (S)-1-(5-chloro-6-(2H-1,2,3-tirazol-2-yl)pyridin-3-yl)-3-(2-cyano-7-(1-methoxyethyl)pyrazolo[1,5-a]pyrimidin-6-yl)urea] |  | 10 | 49
21 | COC[C@@H](OC)c1c(NC(=O)Nc2cnc(-n3nccn3)c(Cl)c2)cnc2cc(Cl)nn12 [Example 127, (S)-1-(5-chloro-6-(2H-1,2,3-triazol-2-yl)pyridin-3-yl)-3-(2-chloro-7-(1,2-dimethoxyethyl)pyrazolo[1,5-a]pyrimidin-6-yl)urea] |  | 9 | 78
